# Target: Vascular endothelial growth factor receptor 1 (Homo sapiens, UniProt P17948)
# Test: Inhibition of VEGFR1 by enzymatic assay
# Chain of Vascular endothelial growth factor receptor 1 (P17948 whole entry): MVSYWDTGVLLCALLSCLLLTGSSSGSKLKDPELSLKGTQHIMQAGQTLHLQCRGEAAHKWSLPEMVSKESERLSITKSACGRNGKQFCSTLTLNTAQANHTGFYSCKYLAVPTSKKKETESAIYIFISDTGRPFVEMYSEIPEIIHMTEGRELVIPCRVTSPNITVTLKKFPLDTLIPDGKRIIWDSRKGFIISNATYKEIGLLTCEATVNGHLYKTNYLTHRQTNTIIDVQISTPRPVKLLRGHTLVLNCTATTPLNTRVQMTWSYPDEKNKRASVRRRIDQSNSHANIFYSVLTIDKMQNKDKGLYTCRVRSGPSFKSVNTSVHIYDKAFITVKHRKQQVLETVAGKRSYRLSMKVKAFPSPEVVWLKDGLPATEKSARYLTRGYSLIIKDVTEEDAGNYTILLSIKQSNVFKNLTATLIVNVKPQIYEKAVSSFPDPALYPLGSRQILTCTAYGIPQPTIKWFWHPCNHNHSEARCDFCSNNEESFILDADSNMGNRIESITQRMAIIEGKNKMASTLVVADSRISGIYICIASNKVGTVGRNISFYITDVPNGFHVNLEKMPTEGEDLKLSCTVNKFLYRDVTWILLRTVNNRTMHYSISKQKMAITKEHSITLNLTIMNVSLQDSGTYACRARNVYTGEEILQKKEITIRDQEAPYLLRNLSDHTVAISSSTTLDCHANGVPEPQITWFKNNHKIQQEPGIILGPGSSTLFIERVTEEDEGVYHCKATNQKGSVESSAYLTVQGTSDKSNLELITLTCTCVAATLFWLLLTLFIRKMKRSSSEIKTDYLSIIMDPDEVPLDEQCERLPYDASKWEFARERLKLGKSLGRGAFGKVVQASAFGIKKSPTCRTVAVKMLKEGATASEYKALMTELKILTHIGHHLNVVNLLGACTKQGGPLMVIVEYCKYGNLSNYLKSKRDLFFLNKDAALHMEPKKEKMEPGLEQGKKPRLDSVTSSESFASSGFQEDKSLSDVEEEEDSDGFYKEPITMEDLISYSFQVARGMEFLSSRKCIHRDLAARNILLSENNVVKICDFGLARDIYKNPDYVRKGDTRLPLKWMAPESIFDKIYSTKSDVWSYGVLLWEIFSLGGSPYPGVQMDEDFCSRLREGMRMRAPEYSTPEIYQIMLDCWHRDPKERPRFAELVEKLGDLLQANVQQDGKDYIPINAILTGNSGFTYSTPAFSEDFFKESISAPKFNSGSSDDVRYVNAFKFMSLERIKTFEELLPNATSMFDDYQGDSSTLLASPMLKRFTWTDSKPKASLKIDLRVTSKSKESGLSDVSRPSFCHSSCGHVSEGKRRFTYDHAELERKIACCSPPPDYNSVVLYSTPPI
row,IC50,SMILES
1,> 10000 nM,Cn1cnc(NCc2ccc3ccccc3n2)c1-c1nnc(Nc2ccc(Cl)cc2)o1
2,490 nM,Cn1cnc(NCc2ccncc2)c1-c1nnc(Nc2ccc(Cl)c(Cl)c2)o1
3,890 nM,Cn1cnc(NCc2ccncc2)c1-c1nnc(Nc2ccc(C(C)(C)C)cc2)o1

# Target: Cyclin-dependent kinase 2 (Homo sapiens) (UniProt P24941)
# Test: […] against Cdk2 at 10 uM by HTRF method
row,Percent inhibition,SMILES
1,< 30%,Cn1cnc(NCc2ccc3ccccc3n2)c1-c1nnc(Nc2ccc(Cl)cc2)o1
2,< 30%,Cn1cnc(NCc2ccncc2)c1-c1nnc(Nc2ccc(Cl)c(Cl)c2)o1
3,< 30%,Cn1cnc(NCc2ccncc2)c1-c1nnc(Nc2ccc(C(C)(C)C)cc2)o1

# Target: Hepatocyte growth factor receptor (Homo sapiens) (UniProt P08581)
# Test: Percent inhibition against c-Met at 10 uM by HTRF method
# Design: scale not given: the % may be the effect or the level left
row,Activity,SMILES
1,< 30%,Cn1cnc(NCc2ccc3ccccc3n2)c1-c1nnc(Nc2ccc(Cl)cc2)o1
2,< 30%,Cn1cnc(NCc2ccncc2)c1-c1nnc(Nc2ccc(Cl)c(Cl)c2)o1
3,< 30%,Cn1cnc(NCc2ccncc2)c1-c1nnc(Nc2ccc(C(C)(C)C)cc2)o1

# Target: Cyclin-dependent kinase 5 (Homo sapiens) (UniProt Q00535)
# Test: […] against Cdk5 at 10 uM by HTRF method
# Chain of Cyclin-dependent kinase 5 (Homo sapiens) (Q00535 whole entry, looked up): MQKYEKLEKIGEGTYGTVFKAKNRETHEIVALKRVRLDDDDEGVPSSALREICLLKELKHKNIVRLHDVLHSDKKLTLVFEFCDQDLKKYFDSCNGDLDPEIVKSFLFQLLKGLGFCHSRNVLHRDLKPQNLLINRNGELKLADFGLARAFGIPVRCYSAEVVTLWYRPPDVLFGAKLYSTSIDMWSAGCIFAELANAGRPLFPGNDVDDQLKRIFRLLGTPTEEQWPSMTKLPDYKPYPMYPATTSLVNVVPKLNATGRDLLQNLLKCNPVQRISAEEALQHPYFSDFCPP
row,Activity,SMILES
1,< 30%,Cn1cnc(NCc2ccc3ccccc3n2)c1-c1nnc(Nc2ccc(Cl)cc2)o1
2,< 30%,Cn1cnc(NCc2ccncc2)c1-c1nnc(Nc2ccc(Cl)c(Cl)c2)o1
3,< 30%,Cn1cnc(NCc2ccncc2)c1-c1nnc(Nc2ccc(C(C)(C)C)cc2)o1

# Target: Bcr/Abl fusion protein (Homo sapiens) (UniProt P00519+P11274)
# Test: Inhibition of bcr-Abl at 10 uM by HTRF method
# Assay type: protein assay
# Design: scale not given: the % may be the effect or the level left
row,Activity,SMILES
1,< 30%,Cn1cnc(NCc2ccc3ccccc3n2)c1-c1nnc(Nc2ccc(Cl)cc2)o1
2,< 30%,Cn1cnc(NCc2ccncc2)c1-c1nnc(Nc2ccc(Cl)c(Cl)c2)o1
3,< 30%,Cn1cnc(NCc2ccncc2)c1-c1nnc(Nc2ccc(C(C)(C)C)cc2)o1

# Target: Receptor tyrosine-protein kinase erbB-2 (Homo sapiens) (UniProt P04626)
# Test: […] against ErbB2 at 10 uM by HTRF method
# Chain of Receptor tyrosine-protein kinase erbB-2 (Homo sapiens) (P04626 whole entry): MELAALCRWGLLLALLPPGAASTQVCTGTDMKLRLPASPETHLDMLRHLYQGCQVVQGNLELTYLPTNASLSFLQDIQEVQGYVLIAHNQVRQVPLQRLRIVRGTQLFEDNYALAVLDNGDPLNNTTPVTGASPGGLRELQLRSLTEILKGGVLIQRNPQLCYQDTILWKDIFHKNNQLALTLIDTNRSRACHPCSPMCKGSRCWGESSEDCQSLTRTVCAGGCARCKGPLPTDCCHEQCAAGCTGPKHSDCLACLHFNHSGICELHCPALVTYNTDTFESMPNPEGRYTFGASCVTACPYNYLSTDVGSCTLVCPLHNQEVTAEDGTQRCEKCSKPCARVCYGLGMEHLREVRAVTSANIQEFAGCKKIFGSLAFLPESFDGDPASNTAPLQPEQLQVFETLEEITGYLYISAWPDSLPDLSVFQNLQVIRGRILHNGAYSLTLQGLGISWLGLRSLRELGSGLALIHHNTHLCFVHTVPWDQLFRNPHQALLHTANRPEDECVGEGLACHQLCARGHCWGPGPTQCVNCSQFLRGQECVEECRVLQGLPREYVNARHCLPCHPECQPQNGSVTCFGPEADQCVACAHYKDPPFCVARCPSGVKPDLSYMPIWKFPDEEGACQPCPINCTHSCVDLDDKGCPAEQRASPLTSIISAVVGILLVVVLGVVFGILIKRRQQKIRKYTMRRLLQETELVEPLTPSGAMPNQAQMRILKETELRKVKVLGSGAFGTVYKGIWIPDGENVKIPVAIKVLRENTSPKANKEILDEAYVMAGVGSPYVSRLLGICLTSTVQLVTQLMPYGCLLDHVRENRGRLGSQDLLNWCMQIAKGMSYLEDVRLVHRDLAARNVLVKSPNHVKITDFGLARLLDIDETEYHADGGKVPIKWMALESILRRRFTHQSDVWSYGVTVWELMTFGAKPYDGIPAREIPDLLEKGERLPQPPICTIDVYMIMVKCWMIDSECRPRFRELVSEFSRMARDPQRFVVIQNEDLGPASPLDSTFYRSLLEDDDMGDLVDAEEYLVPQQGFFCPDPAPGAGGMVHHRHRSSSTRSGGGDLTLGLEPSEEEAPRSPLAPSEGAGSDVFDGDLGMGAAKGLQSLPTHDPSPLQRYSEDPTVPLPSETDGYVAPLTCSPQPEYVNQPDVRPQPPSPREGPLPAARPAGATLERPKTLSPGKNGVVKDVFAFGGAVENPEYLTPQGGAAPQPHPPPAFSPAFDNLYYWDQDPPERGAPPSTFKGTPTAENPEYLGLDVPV
row,Activity,SMILES
1,< 30%,Cn1cnc(NCc2ccc3ccccc3n2)c1-c1nnc(Nc2ccc(Cl)cc2)o1
2,< 30%,Cn1cnc(NCc2ccncc2)c1-c1nnc(Nc2ccc(Cl)c(Cl)c2)o1
3,< 30%,Cn1cnc(NCc2ccncc2)c1-c1nnc(Nc2ccc(C(C)(C)C)cc2)o1

# Target: cAMP-dependent protein kinase (PKA) (Homo sapiens) (UniProt P22694+P17612+P22612)
# Test: Inhibition against PKA at 10 uM by HTRF method
# Assay type: protein assay
# Design: scale not given: the % may be the effect or the level left
row,Activity,SMILES
1,< 30%,Cn1cnc(NCc2ccc3ccccc3n2)c1-c1nnc(Nc2ccc(Cl)cc2)o1
2,< 30%,Cn1cnc(NCc2ccncc2)c1-c1nnc(Nc2ccc(Cl)c(Cl)c2)o1
3,< 30%,Cn1cnc(NCc2ccncc2)c1-c1nnc(Nc2ccc(C(C)(C)C)cc2)o1

# Target: RAC-alpha serine/threonine-protein kinase (Homo sapiens) (UniProt P31749)
# Test: […] against PKB/Akt at 10 uM by HTRF method
row,Activity,SMILES
1,< 30%,Cn1cnc(NCc2ccc3ccccc3n2)c1-c1nnc(Nc2ccc(Cl)cc2)o1
2,< 30%,Cn1cnc(NCc2ccncc2)c1-c1nnc(Nc2ccc(Cl)c(Cl)c2)o1
3,< 30%,Cn1cnc(NCc2ccncc2)c1-c1nnc(Nc2ccc(C(C)(C)C)cc2)o1

# Target: Epidermal growth factor receptor (Homo sapiens) (UniProt P00533)
# Test: […] against ErbB1 at 10 uM by HTRF method
# Chain of Epidermal growth factor receptor (Homo sapiens) (P00533 whole entry): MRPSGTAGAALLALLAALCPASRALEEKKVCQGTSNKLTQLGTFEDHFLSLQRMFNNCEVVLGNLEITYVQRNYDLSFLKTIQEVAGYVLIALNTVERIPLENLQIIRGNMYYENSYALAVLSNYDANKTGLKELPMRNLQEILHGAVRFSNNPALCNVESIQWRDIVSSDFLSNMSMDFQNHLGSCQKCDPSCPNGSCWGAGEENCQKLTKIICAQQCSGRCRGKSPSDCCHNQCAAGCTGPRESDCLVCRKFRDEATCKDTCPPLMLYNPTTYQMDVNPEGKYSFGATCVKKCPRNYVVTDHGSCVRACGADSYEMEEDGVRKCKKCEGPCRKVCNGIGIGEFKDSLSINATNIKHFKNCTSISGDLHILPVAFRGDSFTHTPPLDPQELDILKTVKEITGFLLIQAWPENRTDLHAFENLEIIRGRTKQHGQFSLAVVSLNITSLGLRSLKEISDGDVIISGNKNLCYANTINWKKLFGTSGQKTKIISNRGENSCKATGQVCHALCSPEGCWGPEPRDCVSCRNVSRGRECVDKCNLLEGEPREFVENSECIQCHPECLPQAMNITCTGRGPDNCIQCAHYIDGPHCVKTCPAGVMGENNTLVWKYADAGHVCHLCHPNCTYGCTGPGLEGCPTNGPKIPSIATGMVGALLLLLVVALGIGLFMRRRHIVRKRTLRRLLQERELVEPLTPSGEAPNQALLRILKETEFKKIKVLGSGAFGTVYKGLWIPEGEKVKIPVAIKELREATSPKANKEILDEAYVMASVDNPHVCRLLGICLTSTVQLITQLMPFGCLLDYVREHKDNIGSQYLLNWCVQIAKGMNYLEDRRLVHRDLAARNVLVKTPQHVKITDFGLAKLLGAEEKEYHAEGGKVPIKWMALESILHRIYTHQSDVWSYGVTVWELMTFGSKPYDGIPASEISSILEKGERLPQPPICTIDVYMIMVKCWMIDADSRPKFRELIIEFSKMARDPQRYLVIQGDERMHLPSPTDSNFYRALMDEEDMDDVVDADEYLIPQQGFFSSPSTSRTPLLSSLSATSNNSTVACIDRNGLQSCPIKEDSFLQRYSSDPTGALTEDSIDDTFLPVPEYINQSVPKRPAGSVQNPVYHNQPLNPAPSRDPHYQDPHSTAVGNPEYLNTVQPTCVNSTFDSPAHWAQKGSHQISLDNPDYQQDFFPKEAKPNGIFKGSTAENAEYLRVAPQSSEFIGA
row,Percent inhibition,SMILES
1,< 30%,Cn1cnc(NCc2ccc3ccccc3n2)c1-c1nnc(Nc2ccc(Cl)cc2)o1
2,< 30%,Cn1cnc(NCc2ccncc2)c1-c1nnc(Nc2ccc(Cl)c(Cl)c2)o1
3,< 30%,Cn1cnc(NCc2ccncc2)c1-c1nnc(Nc2ccc(C(C)(C)C)cc2)o1

# Target: Receptor-type tyrosine-protein kinase FLT3 (Homo sapiens) (UniProt P36888)
# Test: Inhibition of Flt3 at 10 uM by HTRF method
# Design: scale not given: the % may be the effect or the level left
# Chain of Receptor-type tyrosine-protein kinase FLT3 (Homo sapiens) (P36888 whole entry): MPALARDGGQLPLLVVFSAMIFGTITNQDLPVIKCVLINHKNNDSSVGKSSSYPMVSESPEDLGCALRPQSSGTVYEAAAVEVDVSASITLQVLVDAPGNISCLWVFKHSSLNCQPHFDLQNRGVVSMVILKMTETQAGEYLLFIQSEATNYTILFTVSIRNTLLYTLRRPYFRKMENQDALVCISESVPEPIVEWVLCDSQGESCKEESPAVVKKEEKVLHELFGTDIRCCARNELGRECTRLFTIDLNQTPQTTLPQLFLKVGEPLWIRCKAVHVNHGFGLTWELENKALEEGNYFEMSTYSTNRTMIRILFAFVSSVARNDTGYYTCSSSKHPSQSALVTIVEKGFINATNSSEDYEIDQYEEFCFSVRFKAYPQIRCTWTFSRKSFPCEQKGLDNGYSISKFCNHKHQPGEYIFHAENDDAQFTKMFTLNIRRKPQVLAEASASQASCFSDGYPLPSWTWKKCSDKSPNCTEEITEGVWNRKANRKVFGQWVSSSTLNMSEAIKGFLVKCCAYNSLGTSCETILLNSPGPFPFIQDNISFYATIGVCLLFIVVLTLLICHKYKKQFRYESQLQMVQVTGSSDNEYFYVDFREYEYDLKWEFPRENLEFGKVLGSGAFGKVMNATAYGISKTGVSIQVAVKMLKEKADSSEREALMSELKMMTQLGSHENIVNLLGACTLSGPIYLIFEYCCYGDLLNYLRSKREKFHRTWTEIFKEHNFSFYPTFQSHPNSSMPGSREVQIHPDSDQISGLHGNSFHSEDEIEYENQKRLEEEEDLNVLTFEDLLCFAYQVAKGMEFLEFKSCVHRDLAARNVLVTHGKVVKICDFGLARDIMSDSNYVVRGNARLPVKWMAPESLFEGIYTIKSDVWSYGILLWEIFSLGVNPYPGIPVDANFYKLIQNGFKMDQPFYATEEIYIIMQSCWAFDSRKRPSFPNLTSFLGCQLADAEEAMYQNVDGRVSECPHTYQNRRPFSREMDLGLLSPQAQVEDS
row,Activity,SMILES
1,< 30%,Cn1cnc(NCc2ccc3ccccc3n2)c1-c1nnc(Nc2ccc(Cl)cc2)o1
2,< 30%,Cn1cnc(NCc2ccncc2)c1-c1nnc(Nc2ccc(Cl)c(Cl)c2)o1
3,< 30%,Cn1cnc(NCc2ccncc2)c1-c1nnc(Nc2ccc(C(C)(C)C)cc2)o1

# Target: Glycogen synthase kinase-3 beta (Homo sapiens) (UniProt P49841)
# Test: Inhibition against GSK3-beta at 10 uM by HTRF method
# Design: scale not given: the % may be the effect or the level left
row,Activity,SMILES
1,< 30%,Cn1cnc(NCc2ccc3ccccc3n2)c1-c1nnc(Nc2ccc(Cl)cc2)o1
2,< 30%,Cn1cnc(NCc2ccncc2)c1-c1nnc(Nc2ccc(Cl)c(Cl)c2)o1
3,< 30%,Cn1cnc(NCc2ccncc2)c1-c1nnc(Nc2ccc(C(C)(C)C)cc2)o1

# Target: Insulin-like growth factor 1 receptor (Homo sapiens) (UniProt P08069)
# Test: […] against IGF1R at 10 uM by HTRF method
row,Activity,SMILES
1,< 30%,Cn1cnc(NCc2ccc3ccccc3n2)c1-c1nnc(Nc2ccc(Cl)cc2)o1
2,< 30%,Cn1cnc(NCc2ccncc2)c1-c1nnc(Nc2ccc(Cl)c(Cl)c2)o1
3,< 30%,Cn1cnc(NCc2ccncc2)c1-c1nnc(Nc2ccc(C(C)(C)C)cc2)o1

# Target: Fibroblast growth factor receptor 1 (Homo sapiens) (UniProt P11362)
# Test: Percent inhibition against FGFR1 at 10 uM by HTRF method
# Design: scale not given: the % may be the effect or the level left
row,Activity,SMILES
1,< 30%,Cn1cnc(NCc2ccc3ccccc3n2)c1-c1nnc(Nc2ccc(Cl)cc2)o1
2,< 30%,Cn1cnc(NCc2ccncc2)c1-c1nnc(Nc2ccc(Cl)c(Cl)c2)o1
3,< 30%,Cn1cnc(NCc2ccncc2)c1-c1nnc(Nc2ccc(C(C)(C)C)cc2)o1

# Target: T1, Vascular endothelial growth factor receptor 2 (Homo sapiens, UniProt P35968)
# Test: Inhibition of VEGFR2 by enzymatic assay
row,IC50,SMILES
1,> 10000 nM,Cn1cnc(NCc2ccc3ccccc3n2)c1-c1nnc(Nc2ccc(Cl)cc2)o1
2,180 nM,Cn1cnc(NCc2ccncc2)c1-c1nnc(Nc2ccc(Cl)c(Cl)c2)o1
3,380 nM,Cn1cnc(NCc2ccncc2)c1-c1nnc(Nc2ccc(C(C)(C)C)cc2)o1

# Target: T1, Vascular endothelial growth factor receptor 2
# Test: Inhibition of VEGFR2 in 293 adenovirus transfected kidney cells by cell-based ELISA assay
row,IC50,SMILES
1,> 10000 nM,Cn1cnc(NCc2ccc3ccccc3n2)c1-c1nnc(Nc2ccc(Cl)cc2)o1
2,260 nM,Cn1cnc(NCc2ccncc2)c1-c1nnc(Nc2ccc(Cl)c(Cl)c2)o1
3,1050 nM,Cn1cnc(NCc2ccncc2)c1-c1nnc(Nc2ccc(C(C)(C)C)cc2)o1

# Target: T2, Ephrin type-B receptor 4 (Homo sapiens) (UniProt P54760)
# T2 sequence (whole entry): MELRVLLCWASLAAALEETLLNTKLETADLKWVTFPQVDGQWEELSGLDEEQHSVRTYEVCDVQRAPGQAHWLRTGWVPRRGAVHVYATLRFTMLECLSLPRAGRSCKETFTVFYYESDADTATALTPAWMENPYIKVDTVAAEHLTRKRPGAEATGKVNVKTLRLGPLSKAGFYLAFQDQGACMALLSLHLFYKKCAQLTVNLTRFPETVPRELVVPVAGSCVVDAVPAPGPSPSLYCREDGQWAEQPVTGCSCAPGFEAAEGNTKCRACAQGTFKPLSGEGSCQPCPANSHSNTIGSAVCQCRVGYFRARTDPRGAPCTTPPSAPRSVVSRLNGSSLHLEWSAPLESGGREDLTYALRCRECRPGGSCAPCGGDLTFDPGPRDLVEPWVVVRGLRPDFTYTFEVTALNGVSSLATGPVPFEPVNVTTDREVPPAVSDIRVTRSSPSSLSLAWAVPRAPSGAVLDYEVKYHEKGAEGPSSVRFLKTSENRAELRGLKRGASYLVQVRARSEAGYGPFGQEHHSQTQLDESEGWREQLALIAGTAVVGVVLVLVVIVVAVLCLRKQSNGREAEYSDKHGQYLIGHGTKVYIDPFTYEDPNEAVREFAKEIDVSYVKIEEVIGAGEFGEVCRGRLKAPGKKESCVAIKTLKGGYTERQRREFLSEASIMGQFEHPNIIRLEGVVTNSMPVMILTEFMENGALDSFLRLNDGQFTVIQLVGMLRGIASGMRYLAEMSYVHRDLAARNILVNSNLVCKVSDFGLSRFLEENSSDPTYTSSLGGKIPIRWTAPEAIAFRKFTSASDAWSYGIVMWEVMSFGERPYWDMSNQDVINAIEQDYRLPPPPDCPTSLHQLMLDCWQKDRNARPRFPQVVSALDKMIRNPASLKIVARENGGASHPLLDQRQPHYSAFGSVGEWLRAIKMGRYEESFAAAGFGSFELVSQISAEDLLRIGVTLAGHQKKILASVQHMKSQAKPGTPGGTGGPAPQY
# Test: Percent inhibition against EphB4 at 10 uM by HTRF method
# Design: scale not given: the % may be the effect or the level left
row,Activity,SMILES
1,< 30%,Cn1cnc(NCc2ccc3ccccc3n2)c1-c1nnc(Nc2ccc(Cl)cc2)o1
2,< 30%,Cn1cnc(NCc2ccncc2)c1-c1nnc(Nc2ccc(Cl)c(Cl)c2)o1
3,< 30%,Cn1cnc(NCc2ccncc2)c1-c1nnc(Nc2ccc(C(C)(C)C)cc2)o1
